Measured values taken from ChEMBL document CHEMBL5226307, “Advances in Cyclic Nucleotide Phosphodiesterase-Targeted PET Imaging and Drug Discovery” (J Med Chem, 2021).
pIC50, pKd: −log10 of the molar value. Each block holds one molecule with its values, some of them ahead of it.

How the values were obtained:
Phosphodiesterase 1 = Phosphodiesterase 1 (Homo sapiens, UniProt P54750+Q01064+Q14123); test: Inhibition of PDE1 (unknown origin); format: protein assay
[1] = biological target: T1, cAMP and cAMP-inhibited cGMP 3',5'-cyclic phosphodiesterase 10A (Homo sapiens, UniProt Q9Y233); test: Binding affinity to PDE10A (unknown origin) assessed as dissociation constant
[2] = Stability in human plasma assessed as parent compound remaining after 120 mins; format: ADME, cell-free; settings: read-out: Stability
Phosphodiesterase 7 = Phosphodiesterase 7 (Homo sapiens, UniProt Q13946+Q9NP56); test: Inhibition of PDE7 (unknown origin); format: protein assay
[3] = Stability in mouse brain measured at 15 mins; format: ADME, tissue-based; settings: read-out: Stability
[4] = biological target: T2, cGMP-specific 3',5'-cyclic phosphodiesterase (Homo sapiens, UniProt O76074); test: Inhibition of PDE5A (unknown origin)
[5] = biological target: T2, cGMP-specific 3',5'-cyclic phosphodiesterase; test: Binding affinity to PDE5 (unknown origin); settings: tested as the 18F-labelled form
[6] = biological target: T1, cAMP and cAMP-inhibited cGMP 3',5'-cyclic phosphodiesterase 10A; test: Binding affinity to full length human PDE10A assessed as dissociation constant
[7] = biological target: T1, cAMP and cAMP-inhibited cGMP 3',5'-cyclic phosphodiesterase 10A; test: Binding affinity to full length human PDE10A assessed as dissociation constant using [3H]-cAMP as substrate
[8] = biological target: T1, cAMP and cAMP-inhibited cGMP 3',5'-cyclic phosphodiesterase 10A; test: Inhibition of PDE10A (unknown origin)
[9] = Drug uptake in human caudate nucleus assessed as standardized uptake value; format: ADME, tissue-based
[10] = Drug uptake in human globus pallidus assessed as standardized uptake value; format: ADME, tissue-based
[11] = Drug uptake in human putamen nucleus assessed as standardized uptake value; format: ADME, tissue-based
[12] = biological target: T3, cGMP-dependent 3',5'-cyclic phosphodiesterase (Homo sapiens, UniProt O00408); test: Inhibition of human PDE2A
[13] = biological target: T1, cAMP and cAMP-inhibited cGMP 3',5'-cyclic phosphodiesterase 10A; test: Inhibition of human PDE10A
[14] = Drug uptake in pig myocardium assessed as standardized uptake value; format: ADME, tissue-based, Sus scrofa; settings: in vivo
[15] = biological target: T4, cAMP and cAMP-inhibited cGMP 3',5'-cyclic phosphodiesterase 10A (Rattus norvegicus, UniProt Q9QYJ6)
T4 sequence (Q9QYJ6 whole entry): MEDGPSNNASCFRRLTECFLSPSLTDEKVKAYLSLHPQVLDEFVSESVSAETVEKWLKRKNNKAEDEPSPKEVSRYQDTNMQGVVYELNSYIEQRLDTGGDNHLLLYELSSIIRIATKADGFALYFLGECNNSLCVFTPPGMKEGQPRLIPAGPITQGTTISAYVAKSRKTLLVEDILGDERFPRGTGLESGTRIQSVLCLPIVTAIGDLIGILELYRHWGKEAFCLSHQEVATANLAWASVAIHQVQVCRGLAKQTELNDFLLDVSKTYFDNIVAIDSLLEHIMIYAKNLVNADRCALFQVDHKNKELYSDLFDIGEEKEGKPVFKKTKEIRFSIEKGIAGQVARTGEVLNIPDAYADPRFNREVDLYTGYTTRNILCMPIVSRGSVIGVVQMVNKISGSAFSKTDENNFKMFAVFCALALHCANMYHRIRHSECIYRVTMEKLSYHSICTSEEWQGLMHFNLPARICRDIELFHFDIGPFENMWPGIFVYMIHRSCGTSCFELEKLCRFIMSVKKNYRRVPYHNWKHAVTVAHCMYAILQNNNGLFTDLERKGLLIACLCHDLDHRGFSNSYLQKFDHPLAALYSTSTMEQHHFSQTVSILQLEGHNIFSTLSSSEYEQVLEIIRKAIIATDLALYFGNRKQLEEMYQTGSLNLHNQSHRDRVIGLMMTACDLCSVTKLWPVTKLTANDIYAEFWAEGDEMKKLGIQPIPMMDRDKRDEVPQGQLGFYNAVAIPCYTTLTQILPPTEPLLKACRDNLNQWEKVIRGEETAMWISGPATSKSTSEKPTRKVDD

[16] = Metabolic stability in cynomolgus monkey assessed as parent compound remaining incubated for 30 mins in presence of NADPH; format: ADME, Macaca fascicularis; settings: read-out: Stability
[17] = Drug uptake in NMRI mouse lung assessed as maximum standardized uptake value incubated for 30 mins; format: ADME, tissue-based; settings: in vivo, 0.5 h
[18] = Toxicity in mouse assessed as body weight loss at 10 mg/kg/day, po; format: organism-based; settings: in vivo
[19] = biological target: Dual 3',5'-cyclic-AMP and -GMP phosphodiesterase 11A (Homo sapiens, UniProt Q9HCR9); test: Inhibition of human PDE11
[20] = biological target: T1, cAMP and cAMP-inhibited cGMP 3',5'-cyclic phosphodiesterase 10A; test: Inhibition of human PDE10
[21] = biological target: T3, cGMP-dependent 3',5'-cyclic phosphodiesterase; test: Inhibition of human PDE2
[22] = biological target: Dual specificity calcium/calmodulin-dependent 3',5'-cyclic nucleotide phosphodiesterase 1B (Homo sapiens, UniProt Q01064); test: Inhibition of human PDE1B
[23] = biological target: T2, cGMP-specific 3',5'-cyclic phosphodiesterase; test: Inhibition of human PDE5
[24] = biological target: High affinity 3',5'-cyclic-AMP phosphodiesterase 7A (Homo sapiens, UniProt Q13946); test: Inhibition of human PDE7A1
[25] = biological target: 3',5'-cyclic-AMP phosphodiesterase 4A (Homo sapiens, UniProt P27815); test: Inhibition of human PDE4A
[26] = biological target: Dual specificity calcium/calmodulin-dependent 3',5'-cyclic nucleotide phosphodiesterase 1C (Homo sapiens, UniProt Q14123); test: Inhibition of human PDE1C
Phosphodiesterase 4 = Phosphodiesterase 4 (Homo sapiens, UniProt P27815+Q08499+Q07343+Q08493); test: Binding affinity to human PDE4 assessed as dissociation constant; format: protein assay
[27] = Drug uptake in NMRI mouse lung incubated for 30 mins relative to control; format: ADME, tissue-based; settings: in vivo, 0.5 h
[28] = Drug uptake in mouse brown adipose tissue; format: ADME, tissue-based; settings: in vivo
[29] = Drug uptake in mouse striatum; format: ADME, tissue-based; settings: in vivo
[30] = Metabolic stability in mouse brain assessed as parent compound remaining incubated for 30 mins by HPLC analysis; format: ADME, tissue-based; settings: read-out: Stability
[31] = Drug uptake in mouse striatum assessed as standardized uptake value; format: ADME, tissue-based; settings: in vivo
[32] = Metabolic stability in mouse plasma assessed as parent compound remaining incubated for 30 mins by HPLC analysis; format: ADME, cell-free; settings: read-out: Stability
[33] = Metabolic stability in non human primates plasma assessed as parent compound remaining incubated for 70 mins by HPLC analysis; format: ADME, cell-free; settings: read-out: Stability
[34] = Metabolic stability in baboon brain assessed as parent compound remaining incubated for 90 mins; format: ADME, tissue-based, Papio; settings: read-out: Stability
[35] = biological target: T2, cGMP-specific 3',5'-cyclic phosphodiesterase; test: Inhibition of PDE5 (unknown origin)
[36] = Lipophilicity, logD of the compound in Octanol/potassium phosphate buffer at pH 7.4 after 1 hr by HPLC analysis; format: physicochemical

T1 sequence (Q9Y233 whole entry): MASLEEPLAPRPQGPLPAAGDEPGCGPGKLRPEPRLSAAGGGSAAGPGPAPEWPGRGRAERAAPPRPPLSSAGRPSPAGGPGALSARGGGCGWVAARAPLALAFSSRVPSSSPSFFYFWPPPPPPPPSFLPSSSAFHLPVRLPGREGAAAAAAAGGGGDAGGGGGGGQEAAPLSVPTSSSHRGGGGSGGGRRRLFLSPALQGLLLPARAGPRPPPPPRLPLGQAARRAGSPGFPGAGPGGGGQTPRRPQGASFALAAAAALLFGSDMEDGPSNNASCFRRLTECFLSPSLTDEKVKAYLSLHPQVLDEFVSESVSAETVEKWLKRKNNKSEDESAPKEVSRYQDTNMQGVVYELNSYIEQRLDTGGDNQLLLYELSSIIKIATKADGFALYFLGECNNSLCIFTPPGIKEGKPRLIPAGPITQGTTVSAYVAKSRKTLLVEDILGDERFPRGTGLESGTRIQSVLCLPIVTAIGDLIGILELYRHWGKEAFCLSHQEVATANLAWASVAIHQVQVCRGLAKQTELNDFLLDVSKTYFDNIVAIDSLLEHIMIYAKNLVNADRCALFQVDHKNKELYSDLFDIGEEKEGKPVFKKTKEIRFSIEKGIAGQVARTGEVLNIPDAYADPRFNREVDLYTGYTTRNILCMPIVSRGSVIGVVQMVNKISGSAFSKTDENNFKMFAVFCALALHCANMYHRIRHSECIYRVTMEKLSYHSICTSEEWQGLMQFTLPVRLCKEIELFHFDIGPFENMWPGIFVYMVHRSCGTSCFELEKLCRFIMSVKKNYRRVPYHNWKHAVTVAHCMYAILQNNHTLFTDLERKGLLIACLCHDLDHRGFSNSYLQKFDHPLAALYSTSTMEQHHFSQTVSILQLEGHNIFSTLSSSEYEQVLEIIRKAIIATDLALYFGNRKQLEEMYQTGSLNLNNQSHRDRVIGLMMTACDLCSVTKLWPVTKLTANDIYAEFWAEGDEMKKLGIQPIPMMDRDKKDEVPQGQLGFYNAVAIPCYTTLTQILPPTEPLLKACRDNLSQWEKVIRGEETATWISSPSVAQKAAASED
T3 sequence (O00408 whole entry): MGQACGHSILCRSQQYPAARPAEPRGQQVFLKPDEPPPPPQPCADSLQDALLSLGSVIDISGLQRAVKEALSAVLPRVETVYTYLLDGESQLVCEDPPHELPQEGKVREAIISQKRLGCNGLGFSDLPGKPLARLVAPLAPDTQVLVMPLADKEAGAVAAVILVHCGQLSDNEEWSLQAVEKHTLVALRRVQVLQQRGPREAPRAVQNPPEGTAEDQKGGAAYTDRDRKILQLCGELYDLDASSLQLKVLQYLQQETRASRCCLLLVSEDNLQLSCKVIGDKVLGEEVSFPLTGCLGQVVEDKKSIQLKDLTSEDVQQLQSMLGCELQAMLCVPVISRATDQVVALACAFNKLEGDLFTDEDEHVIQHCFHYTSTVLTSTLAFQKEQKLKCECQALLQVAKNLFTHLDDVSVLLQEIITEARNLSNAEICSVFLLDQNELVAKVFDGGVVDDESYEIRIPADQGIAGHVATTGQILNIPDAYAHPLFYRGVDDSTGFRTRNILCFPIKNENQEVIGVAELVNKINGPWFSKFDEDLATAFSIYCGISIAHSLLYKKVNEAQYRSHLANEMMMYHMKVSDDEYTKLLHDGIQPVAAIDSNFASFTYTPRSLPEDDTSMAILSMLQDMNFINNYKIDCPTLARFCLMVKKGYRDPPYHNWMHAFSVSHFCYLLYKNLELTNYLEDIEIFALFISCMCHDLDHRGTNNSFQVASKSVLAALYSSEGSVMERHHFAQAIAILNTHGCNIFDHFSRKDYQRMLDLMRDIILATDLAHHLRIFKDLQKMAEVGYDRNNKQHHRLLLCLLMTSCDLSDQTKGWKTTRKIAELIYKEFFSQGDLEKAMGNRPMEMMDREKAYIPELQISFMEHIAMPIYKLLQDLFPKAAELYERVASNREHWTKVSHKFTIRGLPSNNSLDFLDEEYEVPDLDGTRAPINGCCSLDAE
Dual specificity calcium/calmodulin-dependent 3',5'-cyclic nucleotide phosphodiesterase 1B, sequence (Q01064 whole entry): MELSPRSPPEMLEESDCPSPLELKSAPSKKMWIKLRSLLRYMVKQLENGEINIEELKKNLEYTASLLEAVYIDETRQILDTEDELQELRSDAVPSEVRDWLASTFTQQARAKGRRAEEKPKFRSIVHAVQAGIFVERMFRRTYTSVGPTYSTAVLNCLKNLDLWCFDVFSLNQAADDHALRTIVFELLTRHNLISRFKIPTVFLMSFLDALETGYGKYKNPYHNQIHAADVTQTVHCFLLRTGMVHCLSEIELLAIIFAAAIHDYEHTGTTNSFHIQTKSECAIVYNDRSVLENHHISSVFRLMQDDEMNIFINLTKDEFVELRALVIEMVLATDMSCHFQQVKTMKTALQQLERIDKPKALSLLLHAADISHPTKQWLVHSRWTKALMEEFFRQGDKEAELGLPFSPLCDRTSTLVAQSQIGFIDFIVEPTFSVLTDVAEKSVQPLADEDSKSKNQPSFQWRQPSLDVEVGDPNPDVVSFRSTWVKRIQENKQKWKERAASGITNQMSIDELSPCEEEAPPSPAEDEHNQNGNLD
High affinity 3',5'-cyclic-AMP phosphodiesterase 7A, sequence (Q13946 whole entry): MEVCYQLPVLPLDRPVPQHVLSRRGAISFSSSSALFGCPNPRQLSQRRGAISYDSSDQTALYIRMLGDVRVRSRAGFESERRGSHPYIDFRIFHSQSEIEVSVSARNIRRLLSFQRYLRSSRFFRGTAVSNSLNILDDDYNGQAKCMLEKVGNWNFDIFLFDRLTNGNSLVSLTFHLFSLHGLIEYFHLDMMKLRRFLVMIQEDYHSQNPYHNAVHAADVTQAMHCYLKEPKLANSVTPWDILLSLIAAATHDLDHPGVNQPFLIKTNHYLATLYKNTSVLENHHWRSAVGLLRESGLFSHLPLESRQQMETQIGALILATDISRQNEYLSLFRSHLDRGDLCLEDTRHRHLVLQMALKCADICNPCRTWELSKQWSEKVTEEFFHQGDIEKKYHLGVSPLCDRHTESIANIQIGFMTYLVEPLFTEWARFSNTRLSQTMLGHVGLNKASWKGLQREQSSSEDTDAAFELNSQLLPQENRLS
Dual specificity calcium/calmodulin-dependent 3',5'-cyclic nucleotide phosphodiesterase 1C, sequence (Q14123 whole entry): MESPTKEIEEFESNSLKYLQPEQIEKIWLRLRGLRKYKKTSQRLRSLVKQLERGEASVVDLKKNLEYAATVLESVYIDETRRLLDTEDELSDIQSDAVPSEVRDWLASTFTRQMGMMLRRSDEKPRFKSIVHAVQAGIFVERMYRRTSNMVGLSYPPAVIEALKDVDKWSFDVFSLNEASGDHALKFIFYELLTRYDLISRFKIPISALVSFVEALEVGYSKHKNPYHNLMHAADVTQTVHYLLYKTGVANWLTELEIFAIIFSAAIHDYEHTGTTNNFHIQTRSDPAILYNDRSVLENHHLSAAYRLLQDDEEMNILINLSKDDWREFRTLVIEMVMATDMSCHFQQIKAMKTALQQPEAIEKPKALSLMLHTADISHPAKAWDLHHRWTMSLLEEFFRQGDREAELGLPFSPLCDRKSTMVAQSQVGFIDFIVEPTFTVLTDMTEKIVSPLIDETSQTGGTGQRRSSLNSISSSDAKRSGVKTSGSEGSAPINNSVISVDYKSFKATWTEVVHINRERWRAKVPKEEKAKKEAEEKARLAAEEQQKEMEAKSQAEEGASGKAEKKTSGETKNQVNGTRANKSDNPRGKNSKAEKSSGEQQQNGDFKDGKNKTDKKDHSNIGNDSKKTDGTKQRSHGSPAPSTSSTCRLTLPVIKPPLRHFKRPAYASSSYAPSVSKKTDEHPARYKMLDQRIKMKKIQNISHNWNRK
Dual 3',5'-cyclic-AMP and -GMP phosphodiesterase 11A, sequence (Q9HCR9 whole entry): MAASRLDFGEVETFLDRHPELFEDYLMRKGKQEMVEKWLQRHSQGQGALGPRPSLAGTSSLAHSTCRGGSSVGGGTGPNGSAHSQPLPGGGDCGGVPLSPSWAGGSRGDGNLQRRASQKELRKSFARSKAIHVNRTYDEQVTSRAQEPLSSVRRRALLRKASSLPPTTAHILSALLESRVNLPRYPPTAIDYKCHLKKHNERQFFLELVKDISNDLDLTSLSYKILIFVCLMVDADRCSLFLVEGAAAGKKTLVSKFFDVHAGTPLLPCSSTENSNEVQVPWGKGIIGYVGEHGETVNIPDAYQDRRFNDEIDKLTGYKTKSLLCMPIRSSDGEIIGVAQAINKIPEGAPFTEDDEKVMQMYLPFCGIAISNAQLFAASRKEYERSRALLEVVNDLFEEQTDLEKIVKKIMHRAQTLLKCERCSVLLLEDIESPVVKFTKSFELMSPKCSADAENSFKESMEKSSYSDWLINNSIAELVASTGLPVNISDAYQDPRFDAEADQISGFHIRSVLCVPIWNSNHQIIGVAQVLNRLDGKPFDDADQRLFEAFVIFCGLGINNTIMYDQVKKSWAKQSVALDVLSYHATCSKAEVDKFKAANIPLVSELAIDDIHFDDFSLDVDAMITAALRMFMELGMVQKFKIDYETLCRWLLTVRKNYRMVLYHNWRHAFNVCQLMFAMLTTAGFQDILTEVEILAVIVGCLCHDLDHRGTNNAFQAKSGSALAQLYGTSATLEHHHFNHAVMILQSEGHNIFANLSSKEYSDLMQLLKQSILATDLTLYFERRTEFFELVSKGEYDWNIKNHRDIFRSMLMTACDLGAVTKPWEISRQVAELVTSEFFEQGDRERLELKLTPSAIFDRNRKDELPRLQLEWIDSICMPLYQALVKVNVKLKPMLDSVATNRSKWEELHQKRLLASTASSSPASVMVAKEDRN

IC50 (Phosphodiesterase 1): 170 nM
SMILES: CCC(CC)Nc1ncnc2c(OC)c(OC)ccc12

pKd [1]: 10.01
remaining at 2 h [2]: 20%
SMILES: Cc1ccc2c(=O)n(-c3ccc(OC[18F])cc3)c(CCN3C(=O)c4cccc(OC(C)C)c4C3=O)nc2c1

IC50 (Phosphodiesterase 7): 1.7 nM
remaining at […] [3]: 74%
SMILES: [11CH3]n1nnc(COc2ccc(Cl)c3c2C2(CCCCC2)NC(=O)N3)n1

pIC50 [4]: 8.23
Bmax [5]: 0.1 nM
SMILES: CCc1cc(C#N)cc2c(NCc3ccc(OC)c(Cl)c3)c(COCCF)cnc12

pKd [6]: 8.18
pKd [7]: 8.50
pIC50 [8]: 9.30
SMILES: [18F]CCn1cc(-c2ccncc2)c(-c2ccc(OCc3ccc4ccccc4n3)cc2)n1

pIC50 [8]: 9.74
SMILES: CC(=O)N1CCC(c2nccnc2Oc2ccc(C(=O)c3nc4ccccc4[nH]3)cc2)CC1

pIC50 [8]: 8.72
SMILES: COc1cc2nncc(-c3cnc(NC(C)C)c(C)c3)c2cc1O[11CH3]

pKd [1]: 10.54
SUV [9]: 0.7%
SUV [10]: 1.5%
remaining at 2 h [2]: 20%
SUV [11]: 0.7%
SMILES: Cc1ccc2c(=O)n(-c3ccc4cnn(CC[18F])c4c3)c(CCN3C(=O)c4cccc(OC(C)C)c4C3=O)nc2c1

pIC50 [12]: 6.04
pIC50 [13]: 8.14
SMILES: COc1ccc2nnc3c(C)nc(-c4cc(OCCCC[18F])ccc4F)n3c2n1

SUV [14]: 3.8
SMILES: CCCCN1C(=O)[C@H]2Cc3c([nH]c4ccccc34)[C@@H](c3ccc(O[11CH3])cc3)N2C1=O

pIC50 [15]: 9.41
remaining at 0.5 h [16]: 27%
SMILES: Cc1ccc(C)n2nc(CCc3nc(-c4ccccc4)cn3[11CH3])nc12

SUVmax [17]: 8.9
SMILES: CCCc1nc(C)c2c(=O)[nH]c(-c3cc(S(=O)(=O)N4CCN(CC[18F])CC4)ccc3OCC)nn12

SMILES: Cn1cc(-c2ccncc2)c(-c2ccc(OCc3ccc4ccccc4n3)cc2)n1 [MARDEPODECT]
Activity [18]: 8.61%

pIC50 [19]: ≥ 5.00
pIC50 [20]: ≥ 5.00
SMILES: CC(C)C(=O)c1c(C(C)C)nn2ccccc12 [IBUDILAST]

pIC50 [21]: 4.21
pIC50 [22]: 4.21
pIC50 [23]: 4.21
pIC50 [24]: 6.59
pIC50 [25]: 4.21
pIC50 [26]: 4.21
SMILES: Cc1ccc([N+](=O)[O-])cc1S(=O)(=O)N(C)C

pIC50 [13]: < 6.00
SMILES: CCCCOc1ccc(F)c(-c2nc(C)c3nnc4ccc(OCC[18F])nc4n23)c1

SMILES: COc1ccc2nnc3c(C)nc(-c4cc(OCCC[18F])ccc4F)n3c2n1
pIC50 [12]: 7.94
pIC50 [13]: 8.14

Kd (Phosphodiesterase 4): 0.26 nM
SMILES: O=C1C[C@H](c2ccc(OCF)c(OC3CCCC3)c2)CN1

pIC50 [8]: 9.11
SMILES: [11CH3]Oc1cn(-c2ccc(C3CCOCC3)cc2F)nc(-c2ccnn2-c2ccccc2)c1=O

IC50 (Phosphodiesterase 1): 13 nM
SMILES: CC(C)Cn1c(=O)n(C)c(=O)c2c(Nc3ccccc3)n(Cc3ccc(C4CCCN4C)cc3)nc21 (stereo not drawn)

SUVmax [17]: 8
Drug uptake [27]: > 86%
SMILES: CCCc1nn(C)c2c(=O)[nH]c(-c3cc(S(=O)(=O)N4CCN([11CH3])CC4)ccc3OCC)nc12

Drug uptake [28]: 30%
Drug uptake [29]: 130%
remaining at 0.5 h [30]: 88%
SUV [31]: 2.7
remaining at 0.5 h [32]: 64%
SMILES: COc1cc(Br)cc2c1nc(C)c1c(C)nc(-c3ccc([18F])nc3)n12

remaining at 1.167 h [33]: 24%
remaining at 1.5 h [34]: 30%
SMILES: [11CH3]n1cc(-c2ccncc2)c(-c2ccc(OCc3ccc4ccccc4n3)cc2)n1

pIC50 [8]: 9.89
SMILES: CC([18F])C(=O)N1CCC(c2nccnc2Oc2ccc(C(=O)c3nc4ccccc4[nH]3)cc2)CC1 (stereo not drawn)

pIC50 [8]: 8.70
SMILES: Cc1cnc(COc2ccc(-c3nn(CC[18F])cc3-c3ccncc3)cc2)c(C)c1

IC50 (Phosphodiesterase 7): 17 nM
remaining at […] [3]: 84%
SMILES: O=C1Nc2c(Cl)ccc(OCC[18F])c2C2(CCCCC2)N1

SUV [14]: 2.6
SMILES: CCCCN1C(=O)[C@H]2Cc3c([nH]c4ccccc34)[C@@H](c3ccc(OC)cc3)N2C1=O

pIC50 [4]: 8.23
pIC50 [35]: 8.73
Bmax [5]: 0.1 nM
SMILES: COc1ccc(CNc2c(CO)cnc3c(N4CC(F)C4)cc(C#N)cc23)cc1Cl

logD at 1 h [36]: 3.19
SMILES: CC(C)Oc1cccc2c1C(=O)N(CCc1nc3ccccc3c(=O)n1-c1ccc(O[11CH3])cc1)C2=O

remaining at 1.5 h [34]: 50%
pIC50 [8]: 10.22
SMILES: [11CH3]N(c1cc(N2CC[C@@H](F)C2)nc2cc(-c3cnc4c(n3)CCCC4)nn12)C1CCOCC1
